Measured values from ChEMBL document CHEMBL3885881, “DrugMatrix”.

Species on record: Rattus norvegicus
Assay: DrugMatrix - Regimen: Daily Repeat
Format: toxicity, organism-based, Sprague-Dawley
Parameters: regimen Daily Repeat, gender Male, age 6-8 weeks
Conditions: in vivo, po, route oral GAVAGE, vehicle .5 % CMC; for ABSOLUTE BASOPHIL / ABSOLUTE EOSINOPHIL / ABSOLUTE LYMPHOCYTE / ABSOLUTE MONOCYTE / ABSOLUTE SEGMENTED NEUTROPHIL / BASOPHIL / EOSINOPHIL / ERYTHROCYTE COUNT / HEMATOCRIT / HEMOGLOBIN / LEUKOCYTE COUNT / LYMPHOCYTE / MEAN CORPUSCULAR HEMOGLOBIN / MEAN CORPUSCULAR HEMOGLOBIN CONCENTRATION / MEAN CORPUSCULAR VOLUME / MONOCYTE / NEUTROPHIL / NUCLEATED RED BLOOD CELLS / PLATELET COUNT: tissue Blood; for ALANINE AMINOTRANSFERASE / ALBUMIN / ALKALINE PHOSPHATASE / ASPARTATE AMINOTRANSFERASE / BLOOD UREA NITROGEN / CARBON DIOXIDE / CHLORIDE / CHOLESTEROL / CREATINE PHOSPHOKINASE / CREATININE / GLUCOSE / LACTATE DEHYDROGENASE / LIPASE / PHOSPHORUS / POTASSIUM / SODIUM / TOTAL BILIRUBIN / TOTAL PROTEIN / URIC ACID: tissue Plasma
[1] = 4.5 mg/kg, 120 h, dose level Low, time 5 day
[2] = 10 mg/kg, 72 h, dose level High, time 3 day
[3] = 10 mg/kg, 120 h, dose level High, time 5 day

CC(C(=O)O)c1ccc(-c2ccccc2)c(F)c1 (centres undefined) [FLURBIPROFEN]
ABSOLUTE BASOPHIL [1]: 0 CELLS/uL | ABSOLUTE EOSINOPHIL [1]: 147.67 CELLS/uL | ABSOLUTE LYMPHOCYTE [1]: 17510 CELLS/uL | ABSOLUTE MONOCYTE [1]: 77.67 CELLS/uL | ABSOLUTE SEGMENTED NEUTROPHIL [1]: 4798 CELLS/uL | BASOPHIL [1]: 0% | EOSINOPHIL [1]: 0.67% | ERYTHROCYTE COUNT [1]: 5.45 x10E6/uL | HEMATOCRIT [1]: 34.47% | HEMOGLOBIN [1]: 12.83 G/DL | LEUKOCYTE COUNT [1]: 22.53 x10E3/uL | LYMPHOCYTE [1]: 77.67% | MEAN CORPUSCULAR HEMOGLOBIN [1]: 23.53 pg | MEAN CORPUSCULAR HEMOGLOBIN CONCENTRATION [1]: 37.23 G/DL | MEAN CORPUSCULAR VOLUME [1]: 63.2 fL | MONOCYTE [1]: 0.33% | NEUTROPHIL [1]: 21.33% | NUCLEATED RED BLOOD CELLS [1]: 0 /100WBC | PLATELET COUNT [1]: 1825.67 x10E3/uL | ALANINE AMINOTRANSFERASE [1]: 45.67 u/L | ALBUMIN [1]: 3.93 G/DL | ALKALINE PHOSPHATASE [1]: 223.33 u/L | ASPARTATE AMINOTRANSFERASE [1]: 67.33 u/L | BLOOD UREA NITROGEN [1]: 14.67 mg/dL | CARBON DIOXIDE [1]: 27.67 mmol/L | CHLORIDE [1]: 100 MEQ/L | CHOLESTEROL [1]: 64.33 mg/dL | CREATINE PHOSPHOKINASE [1]: 204.67 u/L | CREATININE [1]: 0.18 mg/dL | GLUCOSE [1]: 162.67 mg/dL | LACTATE DEHYDROGENASE [1]: 109.33 u/L | LIPASE [1]: 8.67 u/L | PHOSPHORUS [1]: 11.9 mg/dL | POTASSIUM [1]: 6.47 MEQ/L | SODIUM [1]: 143.53 MEQ/L | TOTAL BILIRUBIN [1]: 0.17 mg/dL | TOTAL PROTEIN [1]: 5.73 G/DL | URIC ACID [1]: 2.47 mg/dL | ABSOLUTE BASOPHIL [2]: 0 CELLS/uL | ABSOLUTE EOSINOPHIL [2]: 156 CELLS/uL | ABSOLUTE LYMPHOCYTE [2]: 13184.67 CELLS/uL | ABSOLUTE MONOCYTE [2]: 124.67 CELLS/uL | ABSOLUTE SEGMENTED NEUTROPHIL [2]: 3134.67 CELLS/uL | BASOPHIL [2]: 0% | EOSINOPHIL [2]: 1% | ERYTHROCYTE COUNT [2]: 4.13 x10E6/uL | HEMATOCRIT [2]: 25.13% | HEMOGLOBIN [2]: 10 G/DL | LEUKOCYTE COUNT [2]: 16.6 x10E3/uL | LYMPHOCYTE [2]: 79.67% | MEAN CORPUSCULAR HEMOGLOBIN [2]: 24.27 pg | MEAN CORPUSCULAR HEMOGLOBIN CONCENTRATION [2]: 39.83 G/DL | MEAN CORPUSCULAR VOLUME [2]: 61.07 fL | MONOCYTE [2]: 0.67% | NEUTROPHIL [2]: 18.67% | NUCLEATED RED BLOOD CELLS [2]: 0 /100WBC | PLATELET COUNT [2]: 1131.67 x10E3/uL | ALANINE AMINOTRANSFERASE [2]: 16 u/L | ALBUMIN [2]: 2.13 G/DL | ALKALINE PHOSPHATASE [2]: 132.67 u/L | ASPARTATE AMINOTRANSFERASE [2]: 50 u/L | BLOOD UREA NITROGEN [2]: 12 mg/dL | CARBON DIOXIDE [2]: 23 mmol/L | CHLORIDE [2]: 104.33 MEQ/L | CHOLESTEROL [2]: 60 mg/dL | CREATINE PHOSPHOKINASE [2]: 459.67 u/L | CREATININE [2]: 0.11 mg/dL | GLUCOSE [2]: 149.33 mg/dL | LACTATE DEHYDROGENASE [2]: 200.33 u/L | LIPASE [2]: 7.33 u/L | PHOSPHORUS [2]: 10.17 mg/dL | POTASSIUM [2]: 6.66 MEQ/L | SODIUM [2]: 141.47 MEQ/L | TOTAL BILIRUBIN [2]: 0 mg/dL | TOTAL PROTEIN [2]: 3.97 G/DL | URIC ACID [2]: 1.6 mg/dL | ABSOLUTE BASOPHIL [3]: 0 CELLS/uL | ABSOLUTE EOSINOPHIL [3]: 295.67 CELLS/uL | ABSOLUTE LYMPHOCYTE [3]: 12633.33 CELLS/uL | ABSOLUTE MONOCYTE [3]: 394 CELLS/uL | ABSOLUTE SEGMENTED NEUTROPHIL [3]: 4310.33 CELLS/uL | BASOPHIL [3]: 0% | EOSINOPHIL [3]: 2% | ERYTHROCYTE COUNT [3]: 4.56 x10E6/uL | HEMATOCRIT [3]: 28.67% | HEMOGLOBIN [3]: 11 G/DL | LEUKOCYTE COUNT [3]: 17.63 x10E3/uL | LYMPHOCYTE [3]: 68.33% | MEAN CORPUSCULAR HEMOGLOBIN [3]: 24.17 pg | MEAN CORPUSCULAR HEMOGLOBIN CONCENTRATION [3]: 38.37 G/DL | MEAN CORPUSCULAR VOLUME [3]: 62.97 fL | MONOCYTE [3]: 1.67% | NEUTROPHIL [3]: 28% | NUCLEATED RED BLOOD CELLS [3]: 0.33 /100WBC | PLATELET COUNT [3]: 1559.67 x10E3/uL | ALANINE AMINOTRANSFERASE [3]: 29 u/L | ALBUMIN [3]: 2.7 G/DL | ALKALINE PHOSPHATASE [3]: 259.67 u/L | ASPARTATE AMINOTRANSFERASE [3]: 105.67 u/L | BLOOD UREA NITROGEN [3]: 16 mg/dL | CARBON DIOXIDE [3]: 25 mmol/L | CHLORIDE [3]: 100.67 MEQ/L | CHOLESTEROL [3]: 63.33 mg/dL | CREATINE PHOSPHOKINASE [3]: 164.67 u/L | CREATININE [3]: 0.13 mg/dL | GLUCOSE [3]: 140.33 mg/dL | LACTATE DEHYDROGENASE [3]: 138 u/L | LIPASE [3]: 8.33 u/L | PHOSPHORUS [3]: 11.9 mg/dL | POTASSIUM [3]: 6.44 MEQ/L | SODIUM [3]: 142.2 MEQ/L | TOTAL BILIRUBIN [3]: 0.1 mg/dL | TOTAL PROTEIN [3]: 5.03 G/DL | URIC ACID [3]: 1.63 mg/dL
